Each structure is given as a SMILES string. Active and inactive are the calls of the source. The calls are words filed in the database; no cut-off is given here.

In assay [1] the test system is Candida albicans. As to the kind of experiment: Antifungal activity against Candida albicans 9296 assessed as inhibition of fungal growth incubated for 48 to 72 hrs by microplate reader analysis. As to conditions: time 48-72 hrs. The format is functional, organism-based.
Assay [2] has as its system Nakaseomyces glabratus. Put plainly: Antifungal activity against Candida glabrata 9256 assessed as inhibition of fungal growth incubated for 48 to 72 hrs by microplate reader analysis. In kind it is functional. As to conditions: time 48-72 hrs.
The subject of assay [3] is [Candida] auris. As to the kind of experiment: Antifungal activity against Candida auris 0029 assessed as inhibition of fungal growth incubated for 48 to 72 hrs by microplate reader analysis. In kind it is functional, organism-based. The note with it: Candidozyma auris, time 48-72 hrs.
In assay [4] the test system is Candida albicans. As to the kind of experiment: Antifungal activity against Candida albicans 103 assessed as inhibition of fungal growth incubated for 48 to 72 hrs by microplate reader analysis. The format is functional, organism-based. The note with it: time 48-72 hrs.
For assay [5], the system named is Cryptococcus neoformans. As to the kind of experiment: Antifungal activity against Cryptococcus neoformans 011409 assessed as inhibition of fungal growth incubated for 48 to 72 hrs by microplate reader analysis. As to conditions: time 48-72 hrs. In kind it is functional.
The subject of assay [6] is Candida albicans. Put plainly: Antifungal activity against Candida albicans SC5314 assessed as inhibition of fungal growth incubated for 48 to 72 hrs by microplate reader analysis. In kind it is functional, organism-based. The note with it: time 48-72 hrs.
For assay [7], the system named is [Candida] auris. As to the kind of experiment: Antifungal activity against Candida auris 15448 assessed as inhibition of fungal growth incubated for 48 to 72 hrs by microplate reader analysis. In kind it is functional, organism-based. The note with it: Candidozyma auris, time 48-72 hrs.
Assay [8] deals with Nakaseomyces glabratus. As to the kind of experiment: Antifungal activity against Candida glabrata 8535 assessed as inhibition of fungal growth incubated for 48 to 72 hrs by microplate reader analysis. The format is functional. The note with it: time 48-72 hrs.
Assay [9] deals with [Candida] auris. As to the kind of experiment: Antifungal activity against Candida auris 0030 assessed as inhibition of fungal growth incubated for 48 to 72 hrs by microplate reader analysis. The format is functional, organism-based. The note with it: Candidozyma auris, time 48-72 hrs.
The test system of assay [10] is Nakaseomyces glabratus. As to the kind of experiment: Antifungal activity against Candida glabrata 0161 assessed as inhibition of fungal growth incubated for 48 to 72 hrs by microplate reader analysis. In kind it is functional. As to conditions: time 48-72 hrs.
Assay [11] concerns Cryptococcus neoformans. As to the kind of experiment: Antifungal activity against Cryptococcus neoformans H99 assessed as inhibition of fungal growth incubated for 48 to 72 hrs by microplate reader analysis. In kind it is functional. The note with it: time 48-72 hrs.
The subject of assay [12] is Cryptococcus neoformans. As to the kind of experiment: Antifungal activity against Cryptococcus neoformans HN-68 assessed as inhibition of fungal growth incubated for 48 to 72 hrs by microplate reader analysis. In kind it is functional. The note with it: time 48-72 hrs.
The next assay deals with Cryptococcus gattii. Put plainly: Antifungal activity against Cryptococcus gattii 01063P assessed as inhibition of fungal growth incubated for 48 to 72 hrs by microplate reader analysis. The note with it: time 48-72 hrs. The format is functional.

Take `Nc1cc(=O)n(C(=S)Nc2ccc(C(=O)c3ccccc3)cc2)[nH]1`: the result (with Candida albicans [1]; in assay [Candida] auris [3]; in the assay with Candida albicans [4]; in the assay with Candida albicans [6]; in assay [Candida] auris [7]; in assay [Candida] auris [9]) was inactive. For the same molecule, the outcome in the assay on Nakaseomyces glabratus [2], with Cryptococcus neoformans [5], in the assay with Nakaseomyces glabratus [8], in the assay with Nakaseomyces glabratus [10], in the assay with Cryptococcus neoformans [11] and with Cryptococcus neoformans [12] was Active. The outcome with Cryptococcus gattii was Active.
`Nc1cc(=O)n(C(=S)Nc2cccnc2)[nH]1`: the result (with Candida albicans [1]; in [Candida] auris [3]; with Candida albicans [4]; in the assay on Candida albicans [6]; in assay [Candida] auris [7]; in assay [Candida] auris [9]) was inactive. The Activity result with Nakaseomyces glabratus [2], in the assay with Cryptococcus neoformans [5], in the assay with Nakaseomyces glabratus [8], with Nakaseomyces glabratus [10], in the assay with Cryptococcus neoformans [11] and with Cryptococcus neoformans [12] was “Not active; Decrease In Activity Observed” throughout. In addition, the Activity entry with Cryptococcus gattii is “Not active; Decrease In Activity Observed”.
`CCCCCCCCc1ccc(NC(=S)n2[nH]c(N)cc2=O)cc1`: the outcome (in the assay with Candida albicans [1]; in the assay on Nakaseomyces glabratus [2]; in assay [Candida] auris [3]; in the assay with Candida albicans [4]; with Cryptococcus neoformans [5]; in the assay on Candida albicans [6]) was Active. Moreover, the outcome (in [Candida] auris [7]; with Nakaseomyces glabratus [8]; in assay [Candida] auris [9]; in the assay on Nakaseomyces glabratus [10]; in the assay on Cryptococcus neoformans [11]; with Cryptococcus neoformans [12]) was Active. Besides, in the assay with Cryptococcus gattii, the outcome was Active.
With `CC(=O)c1ccc(NC(=S)n2[nH]c(N)cc2=O)cc1`, the Activity result (in the assay on Candida albicans [1]; in assay [Candida] auris [3]; in the assay on Candida albicans [4]; with Cryptococcus neoformans [5]; in the assay on Candida albicans [6]; in [Candida] auris [7]) was “Not active; Compound Demonstrated Reduced Activity Compared To Lead Compound 1” each time. Further, the Activity result (in assay [Candida] auris [9]; with Cryptococcus neoformans [11]; in the assay with Cryptococcus neoformans [12]; with Cryptococcus gattii) was “Not active; Compound Demonstrated Reduced Activity Compared To Lead Compound 1” throughout. In addition, the outcome in the assay with Nakaseomyces glabratus [2], in the assay on Nakaseomyces glabratus [8] and in the assay on Nakaseomyces glabratus [10] was Active.
On to `Nc1cc(=O)n(C(=S)Nc2ccc3c(c2)COC3=O)[nH]1`, for which the result (in the assay with Candida albicans [1]; in assay [Candida] auris [3]; in the assay with Candida albicans [4]; with Candida albicans [6]; in assay [Candida] auris [7]; in assay [Candida] auris [9]) was inactive. For the same molecule, the Activity entry in the assay with Nakaseomyces glabratus [2], with Cryptococcus neoformans [5], in the assay on Nakaseomyces glabratus [8], with Nakaseomyces glabratus [10], with Cryptococcus neoformans [11] and in the assay on Cryptococcus neoformans [12] was “Not active; Decrease In Activity Observed” in each case. Further, the Activity entry in the assay on Cryptococcus gattii was “Not active; Decrease In Activity Observed”.
Turning to `Nc1ccn(C(=S)Nc2ccc(C3CCCCC3)cc2)n1`, the outcome (with Candida albicans [1]; with Nakaseomyces glabratus [2]; in assay [Candida] auris [3]; in the assay with Candida albicans [4]; with Cryptococcus neoformans [5]; in the assay on Candida albicans [6]) was inactive. In addition, the outcome (in assay [Candida] auris [7]; in the assay with Nakaseomyces glabratus [8]; in [Candida] auris [9]; in the assay on Nakaseomyces glabratus [10]; with Cryptococcus neoformans [11]; with Cryptococcus neoformans [12]) was inactive. In addition, in the assay on Cryptococcus gattii, the result was inactive.
As to `Nc1cc(=O)n(C(=S)Nc2ccc(OC3CCCC3)cc2)[nH]1`, the result (in the assay with Candida albicans [1]; in the assay on Nakaseomyces glabratus [2]; in assay [Candida] auris [3]; in the assay with Candida albicans [4]; with Cryptococcus neoformans [5]; in the assay with Candida albicans [6]) was Active. The outcome (in assay [Candida] auris [7]; in the assay with Nakaseomyces glabratus [8]; in assay [Candida] auris [9]; in the assay with Nakaseomyces glabratus [10]; in the assay on Cryptococcus neoformans [11]; in the assay with Cryptococcus neoformans [12]) was Active. The result in the assay with Cryptococcus gattii was Active.
Consider `S=C(Nc1ccc(C2CCCCC2)cc1)Nc1cc[nH]n1`, for which the outcome (with Candida albicans [1]; in the assay on Nakaseomyces glabratus [2]; in [Candida] auris [3]; with Candida albicans [4]; in the assay with Cryptococcus neoformans [5]; in the assay with Candida albicans [6]) was inactive. The result (in [Candida] auris [7]; with Nakaseomyces glabratus [8]; in [Candida] auris [9]; with Nakaseomyces glabratus [10]; with Cryptococcus neoformans [11]; in the assay on Cryptococcus neoformans [12]) was inactive. The outcome in the assay with Cryptococcus gattii was inactive.
In the case of `CCc1ccc(NC(=S)n2[nH]c(N)cc2=O)cc1`, the result (in the assay on Candida albicans [1]; in the assay on Nakaseomyces glabratus [2]; in [Candida] auris [3]; in the assay with Candida albicans [4]; in the assay on Cryptococcus neoformans [5]; in the assay with Candida albicans [6]) was Active. For the same molecule, the outcome (in [Candida] auris [7]; in the assay on Nakaseomyces glabratus [8]; in assay [Candida] auris [9]; in the assay on Nakaseomyces glabratus [10]; with Cryptococcus neoformans [11]; in the assay with Cryptococcus neoformans [12]) was Active. Further, in the assay on Cryptococcus gattii, the result was Active.

The record behind these values is ChEMBL document CHEMBL6109146, “Discovery of New Pyrazolone Carbothioamide Derivatives as Potent Antifungal Agents for the Treatment of Candidiasis and Cryptococcosis” (J Med Chem, 2025).
